We go through 31 compounds from patent US20130303509A1, “NAMPT INHIBITORS” (AbbVie Inc., priority 2012, published 2013).

As usually defined, the pIC50 is −log10 of the IC50, conventionally taken in molar units. Low readings indicate a high IC50, high ones a low IC50.

Structures are written as SMILES. pIC50: −log10 of the molar value.

The assay has as its system PC3 cells. The experiment in a line: NAMPT Cell Proliferation Assay. As to conditions: Homo sapiens, PC-3, 120 h, 5 days incubation, cell viability by Cell Titer Glo. Type of assay: cell-based. In a few lines:
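Seeded at 500 cells/well in RPMI with 10% heat-inactivated FBS and left to attach overnight at 37° C, 5% CO2. Compounds were added as 10-fold dilutions […] for 5 days, then viability was read by CellTiter-Glo. IC50s came from sigmoidal fits of percent inhibition.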
(ATP-based viability assays read luminescence as a measure of living cells.)

As for `O=C(Nc1ccc(O[C@@H]2CCN(C(=O)c3ccc(F)cc3)C2)cc1)C1CN(c2cccnn2)C1` [Example 489, N-(4-{[(3R)-1-(4-fluorobenzoyl)pyrrolidin-3-yl]oxy}phenyl)-1-(pyridazin-3-yl)azetidine-3-carboxamide], the pIC50 was 8.68.
In the case of `O=C(Nc1ccc(O[C@@H]2CCN(C(=O)c3ccsc3)C2)cc1)C1CN(c2cccnn2)C1` [Example 490, 1-(pyridazin-3-yl)-N-(4-{[(3R)-1-(thiophen-3-ylcarbonyl)pyrrolidin-3-yl]oxy}phenyl)azetidine-3-carboxamide] it was 9.17.
`O=C(Nc1ccc(O[C@@H]2CCN(C(=O)Cc3ccc(F)cc3)C2)cc1)C1CN(c2cccnn2)C1` [Example 491, N-[4-({(3R)-1-[(4-fluorophenyl)acetyl]pyrrolidin-3-yl}oxy)phenyl]-1-(pyridazin-3-yl)azetidine-3-carboxamide] gave a pIC50 of 8.07.
As to `O=C(Nc1ccc(O[C@@H]2CCN(C(=O)Cc3cc(F)cc(F)c3)C2)cc1)C1CN(c2cccnn2)C1` [Example 492, N-[4-({(3R)-1-[(3,5-difluorophenyl)acetyl]pyrrolidin-3-yl}oxy)phenyl]-1-(pyridazin-3-yl)azetidine-3-carboxamide], the pIC50 is 8.43.
For the compound `O=C(Nc1ccc(O[C@@H]2CCN(C(=O)c3ccc(F)c(F)c3)C2)cc1)C1CN(c2cccnn2)C1` [Example 493, N-(4-{[(3R)-1-(3,4-difluorobenzoyl)pyrrolidin-3-yl]oxy}phenyl)-1-(pyridazin-3-yl)azetidine-3-carboxamide], the negative-log IC50 (pIC50) is 8.17.
As to `O=C(Nc1ccc(O[C@@H]2CCN(C(=O)Cc3cccc(F)c3)C2)cc1)C1CN(c2cccnn2)C1` [Example 494, N-[4-({(3R)-1-[(3-fluorophenyl)acetyl]pyrrolidin-3-yl}oxy)phenyl]-1-(pyridazin-3-yl)azetidine-3-carboxamide], the negative-log IC50 (pIC50) is 8.98.
Under `O=C(Nc1ccc(O[C@@H]2CCN(C(=O)c3cccc(C(F)(F)F)c3)C2)cc1)C1CN(c2cccnn2)C1` [Example 495, 1-(pyridazin-3-yl)-N-[4-({(3R)-1-[3-(trifluoromethyl)benzoyl]pyrrolidin-3-yl}oxy)phenyl]azetidine-3-carboxamide] stands 8.15; under `O=C(Nc1ccc(O[C@@H]2CCN(C(=O)Cc3ccc(F)cc3F)C2)cc1)C1CN(c2cccnn2)C1` [Example 496, N-[4-({(3R)-1-[(2,4-difluorophenyl)acetyl]pyrrolidin-3-yl}oxy)phenyl]-1-(pyridazin-3-yl)azetidine-3-carboxamide], 8.20; under `O=C(Nc1ccc(O[C@@H]2CCN(C(=O)Cc3ccc(C(F)(F)F)cc3)C2)cc1)C1CN(c2cccnn2)C1` [Example 497, 1-(pyridazin-3-yl)-N-(4-{[(3R)-1-{[4-(trifluoromethyl)phenyl]acetyl}pyrrolidin-3-yl]oxy}phenyl)azetidine-3-carboxamide], 7.63.
Regarding `O=C(Nc1ccc(O[C@@H]2CCN(C(=O)c3cscn3)C2)cc1)C1CN(c2cccnn2)C1` [Example 498, 1-(pyridazin-3-yl)-N-(4-{[(3R)-1-(1,3-thiazol-4-ylcarbonyl)pyrrolidin-3-yl]oxy}phenyl)azetidine-3-carboxamide], the negative logarithm of the IC50 (pIC50) is 8.18. Compared with the last compound, the pIC50 is 0.55 log units higher.
Under `O=C(Nc1ccc(O[C@@H]2CCN(C(=O)C3CCCO3)C2)cc1)C1CN(c2cccnn2)C1` (stereo partly drawn) [Example 499, 1-(pyridazin-3-yl)-N-(4-{[(3R)-1-(tetrahydrofuran-2-ylcarbonyl)pyrrolidin-3-yl]oxy}phenyl)azetidine-3-carboxamide] stands 7.92; under `Cc1ccc(C(=O)N2CC[C@@H](Oc3ccc(NC(=O)C4CN(c5cccnn5)C4)cc3)C2)s1` [Example 500, N-[4-({(3R)-1-[(5-methylthiophen-2-yl)carbonyl]pyrrolidin-3-yl}oxy)phenyl]-1-(pyridazin-3-yl)azetidine-3-carboxamide], 8.99.
`O=C(Nc1ccc(O[C@@H]2CCN(C(=O)Cc3ccccc3F)C2)cc1)C1CN(c2cccnn2)C1` [Example 501, N-[4-({(3R)-1-[(2-fluorophenyl)acetyl]pyrrolidin-3-yl}oxy)phenyl]-1-(pyridazin-3-yl)azetidine-3-carboxamide] showed a pIC50 of 8.22.
In the case of `O=C(Nc1ccc(O[C@@H]2CCN(C(=O)C3CC3)C2)cc1)C1CN(c2cccnn2)C1` [Example 502, N-(4-{[(3R)-1-(cyclopropylcarbonyl)pyrrolidin-3-yl]oxy}phenyl)-1-(pyridazin-3-yl)azetidine-3-carboxamide] it was 8.32; in that of `O=C(Nc1ccc(O[C@@H]2CCN(C(=O)C3CCOC3)C2)cc1)C1CN(c2cccnn2)C1` (stereo partly drawn) [Example 503, 1-(pyridazin-3-yl)-N-(4-{[(3R)-1-(tetrahydrofuran-3-ylcarbonyl)pyrrolidin-3-yl]oxy}phenyl)azetidine-3-carboxamide], 7.24.
For `O=C(Nc1ccc(O[C@@H]2CCN(C(=O)c3cccc(OC(F)(F)F)c3)C2)cc1)C1CN(c2cccnn2)C1` [Example 504, 1-(pyridazin-3-yl)-N-[4-({(3R)-1-[3-(trifluoromethoxy)benzoyl]pyrrolidin-3-yl}oxy)phenyl]azetidine-3-carboxamide], the pIC50 is 8.11.
The compound `O=C(Nc1ccc(O[C@@H]2CCN(C(=O)c3ccccn3)C2)cc1)C1CN(c2cccnn2)C1` [Example 505, 1-(pyridazin-3-yl)-N-(4-{[(3R)-1-(pyridin-2-ylcarbonyl)pyrrolidin-3-yl]oxy}phenyl)azetidine-3-carboxamide] showed a pIC50 of 8.16.
`O=C(Nc1ccc(O[C@@H]2CCN(C(=O)c3cccc(Cl)c3)C2)cc1)C1CN(c2cccnn2)C1` [Example 506, N-(4-{[(3R)-1-(3-chlorobenzoyl)pyrrolidin-3-yl]oxy}phenyl)-1-(pyridazin-3-yl)azetidine-3-carboxamide] gave a pIC50 of 8.89.
As to `O=C(Nc1ccc(O[C@@H]2CCN(C(=O)c3ccc(Cl)cc3)C2)cc1)C1CN(c2cccnn2)C1` [Example 507, N-(4-{[(3R)-1-(4-chlorobenzoyl)pyrrolidin-3-yl]oxy}phenyl)-1-(pyridazin-3-yl)azetidine-3-carboxamide], the pIC50 is 8.08.
In the case of `CC(C)(C(=O)N1CC[C@@H](Oc2ccc(NC(=O)C3CN(c4cccnn4)C3)cc2)C1)c1ccccc1` [Example 508, N-(4-{[(3R)-1-(2-methyl-2-phenylpropanoyl)pyrrolidin-3-yl]oxy}phenyl)-1-(pyridazin-3-yl)azetidine-3-carboxamide] it was 9.10.
As for `O=C(Nc1ccc(O[C@@H]2CCN(C(=O)c3ccc(F)cc3F)C2)cc1)C1CN(c2cccnn2)C1` [Example 509, N-(4-{[(3R)-1-(2,4-difluorobenzoyl)pyrrolidin-3-yl]oxy}phenyl)-1-(pyridazin-3-yl)azetidine-3-carboxamide], the pIC50 was 8.92.
`COCC(=O)N1CC[C@@H](Oc2ccc(NC(=O)C3CN(c4cccnn4)C3)cc2)C1` [Example 510, N-(4-{[(3R)-1-(methoxyacetyl)pyrrolidin-3-yl]oxy}phenyl)-1-(pyridazin-3-yl)azetidine-3-carboxamide] gave a pIC50 of 7.18.
Compound `O=C(Nc1ccc(O[C@@H]2CCN(C(=O)c3cccs3)C2)cc1)C1CN(c2cccnn2)C1` [Example 511, 1-(pyridazin-3-yl)-N-(4-{[(3R)-1-(thiophen-2-ylcarbonyl)pyrrolidin-3-yl]oxy}phenyl)azetidine-3-carboxamide] had a pIC50 of 9.09.
Consider `O=C(Nc1ccc(O[C@@H]2CCN(C(=O)Cc3cccc(C(F)(F)F)c3)C2)cc1)C1CN(c2cccnn2)C1` [Example 512, 1-(pyridazin-3-yl)-N-(4-{[(3R)-1-{[3-(trifluoromethyl)phenyl]acetyl}pyrrolidin-3-yl]oxy}phenyl)azetidine-3-carboxamide], for which the pIC50 is 7.81.
The compound `CC(C)C(=O)N1CC[C@@H](Oc2ccc(NC(=O)C3CN(c4cccnn4)C3)cc2)C1` [Example 513, N-(4-{[(3R)-1-(2-methylpropanoyl)pyrrolidin-3-yl]oxy}phenyl)-1-(pyridazin-3-yl)azetidine-3-carboxamide] had a pIC50 of 8.46.
Under `O=C(Nc1ccc(O[C@@H]2CCN(C(=O)c3ccccc3F)C2)cc1)C1CN(c2cccnn2)C1` [Example 514, N-(4-{[(3R)-1-(2-fluorobenzoyl)pyrrolidin-3-yl]oxy}phenyl)-1-(pyridazin-3-yl)azetidine-3-carboxamide] stands 9.49; under `CCC(C)(C)C(=O)N1CC[C@@H](Oc2ccc(NC(=O)C3CN(c4cccnn4)C3)cc2)C1` [Example 515, N-(4-{[(3R)-1-(2,2-dimethylbutanoyl)pyrrolidin-3-yl]oxy}phenyl)-1-(pyridazin-3-yl)azetidine-3-carboxamide], 9.07; under `O=C(Nc1ccc(O[C@@H]2CCN(C(=O)c3cc(F)cc(F)c3)C2)cc1)C1CN(c2cccnn2)C1` [Example 516, N-(4-{[(3R)-1-(3,5-difluorobenzoyl)pyrrolidin-3-yl]oxy}phenyl)-1-(pyridazin-3-yl)azetidine-3-carboxamide], 8.65.
Under `O=C(Nc1ccc(O[C@@H]2CCN(C(=O)c3ccc(C(F)(F)F)cc3)C2)cc1)C1CN(c2cccnn2)C1` [Example 517, 1-(pyridazin-3-yl)-N-[4-({(3R)-1-[4-(trifluoromethyl)benzoyl]pyrrolidin-3-yl}oxy)phenyl]azetidine-3-carboxamide] stands 8.04; under `O=C(Nc1ccc(O[C@@H]2CCN(C(=O)c3cccc(F)c3)C2)cc1)C1CN(c2cccnn2)C1` [Example 518, N-(4-{[(3R)-1-(3-fluorobenzoyl)pyrrolidin-3-yl]oxy}phenyl)-1-(pyridazin-3-yl)azetidine-3-carboxamide], 9.06; under `O=C(Nc1ccc(O[C@@H]2CCN(C(=O)c3ccc(OC(F)(F)F)cc3)C2)cc1)C1CN(c2cccnn2)C1` [Example 519, 1-(pyridazin-3-yl)-N-[4-({(3R)-1-[4-(trifluoromethoxy)benzoyl]pyrrolidin-3-yl}oxy)phenyl]azetidine-3-carboxamide], 8.49.
